Values quoted from earlier work as cited in patent US6982284B1, “Compositions and methods for modification of skin lipid content” (Applied Genetics Incorporated Dermatics, priority 1999, dated 2006).

Tested on: living skin equivalents

Row | Molecule | glucosylceramides and ceramides, most notably ceramides 6 and 7 (50 ug/ml) | effect on lipid composition
1 | O=C1O[C@H]([C@@H](O)CO)C(O)=C1O [Vitamin C] | increases | 
2 | Vitamin E |  | no effect
